Experimental data: PMC4929566, “The metabolome of [2-^14C](−)-epicatechin in humans: implications for the assessment of efficacy, safety, and mechanisms of action of polyphenolic bioactives” (Scientific Reports, 2016)
Read-outs that look alike come from different tables or passages of the source.

Assays:
[1] = Metabolite profiling and quantification in urine (HPLC-MS2 with on-line radioactivity detector); format: in vivo, humans; conditions: human, oral 207 μmol 14C-EC, mean ± SEM n=8
Protocol: (§1) The study was a single-center, open-label, and non-randomized study with two distinct elements: a run-in phase to establish a more defined dietary background of dietary flavanols and procyanidins and the subsequent ^14C-EC ADME study (Fig. 1B). Participants (n = 12) were enrolled in the run-in phase (day –17 to day –4) and asked to supplement their daily diet for 14 days with a commercially available flavanol-containing cocoa-based drink (250 mg cocoa flavanols; 40 mg of EC). This was followed by a 4-day period (day –4 to 0) of a low-flavanol diet. One day (study day -1) prior to the initialization of the ^14C-EC ADME study, all eligible participants were accommodated under controlled conditions at a metabolic research facility (Covance Clinical Pharmacology Inc., Wisconsin) until completion of the study. Based on the compliance of the first part of the study, 8 participants were selected to participate in the ^14C-EC ADME study. During the ^14C-EC ADME study (Fig. 1B.), volunteers received a low-flavanol, standardized high-fiber diet, and were encouraged to maintain an adequate level of hydration (water ad libitum). Volunteers were asked to fast for 8 h before the initiation of the study and for at least 4 h after the intake of the ^14C-EC test drink (water ad libitum). Venous blood samples were taken using Vacutainer collection tubes, containing potassium EDTA at 0 h (just prior to ^14C-EC ingestion), and at 0.25, 0.5, 1, 1.5, 2, 2.5, 3, 4, 6, 8, 10, 12, 16, 24, 36, and 48 h after test drink consumption. Plasma was obtained by whole blood centrifugation at 2000 × g for 15 min at 5 °C, separated into aliquots and stored at −80 °C until analysis. All urine and feces from the time just prior to the consumption of the test drink were collected at different time intervals for radioactivity and metabolite profiling. Clinical parameters and laboratory evaluations of participants were assessed at screening, on study day –1, and after completing the study, as detailed in Supplementary Methods.
(§2) Samples were processed as described previously[18] and analyzed by HPLC-MS^2 in conjunction with an on-line HPLC-radioactivity monitor as described in SI Materials and Methods. Identification of metabolites involved comparing the retention time with authentic standards and MS^2 fragmentation patterns (Supplementary Methods). Quantification of metabolites in urine was based on HPLC radioactivity peak area (limit of quantification: 10^3 dpm). Due to the low levels of radioactivity, quantification in plasma was based on targeted HPLC-MS^2 using standard curves obtained with authentic standards (Supplementary Methods).
HPLC-MS identifications of radiolabeled [2-14C](−)-epicatechin metabolites in urine Urine was analyzed with radioactivity and mass spectrometry (MS) detection using a 250 mm x 4.6 mm i.d. 5 µm Luna Phenyl-Hexyl column (Phenomenex, Macclesfield, UK) […]
formic acid. Metabolite identification was performed by 1) co-chromatography of metabolites with reference compounds and a comparison of their MS fragmentation patterns 2, 2) by comparing m/z fragmentation patterns with earlier in-house observed […]
patterns to databases of metabolites reported in earlier polyphenol feeding studies5-7.
Supplementary Table S2, which also provides information on the MSI MI (Metabolite Standards Initiative – Metabolites Identification) level, a confidence level for identification where level 1 stands for fully elucidated (i.e., by comparison with a standard) and level 2 for a well characterized, but not yet fully structurally elucidated 8

[2] = Metabolite profiling and pharmacokinetics in plasma (targeted HPLC-MS2); format: in vivo, humans; conditions: human plasma, oral 60 mg 14C-EC; for AUC0-24h / Cmax / T1/2 (elimination half-life) / Tmax / AUC(0-t) / half-life: mean ± SEM n=8; for AUC(0-t): read-out: AUC0-24h; for half-life: read-out: T1/2 (elimination half-life) (converted)
Protocol: as §1, §2
Data are expressed as mean values ± standard error, or as otherwise specified. Pharmacokinetic parameters were calculated using non-compartmental analysis with WinNonlin (Pharsight Corporation, Version 5.2).
5-20% acetonitrile in 0.1 % formic acid. Supplementary Table S2 provides details of HPLC retention times and the m/z values that were monitored.
Supplementary Table S2. Detection of (−)-epicatechin metabolites. HPLC retention times and selected reaction monitoring ions used for the HPLC-MS analysis of (−)-epicatechin metabolites in plasma. […]
Structurally related (-)-epicatechin metabolites in humans: assessment using de novo chemically synthesized authentic standards. Free Radic Biol Med 52, 1403- […]
3 Borges, G. et al. Bioavailability of multiple components following acute ingestion of a polyphenol-rich juice drink. Mol Nutr Food Res 54 Suppl 2, S268-277, […]
4 Stalmach, A. et al. Absorption, metabolism, and excretion of green tea flavan-3-ols in humans with an ileostomy. Mol Nutr Food Res 54, 323-334,

Row | Compound | Metabolite present in urine, collection period 0–48 h [1] | Metabolite present in urine, collection period 0–4 h ([1]; – = not detected) | Metabolite present in urine, collection period 4–8 h ([1]; – = not detected) | AUC0-24h [2] | Cmax [2] | T1/2 (elimination half-life) [2] | Tmax [2] | Metabolite present in urine, collection period 8–12 h ([1]; – = not detected) | Metabolite present in urine, collection period 12–24 h ([1]; – = not detected) | Metabolite present in urine, collection period 24–48 h ([1]; – = not detected) | Cmax ([2]; male) | AUC(0-t) ([2]; male) | half-life ([2]; male) | Tmax ([2]; male, read-out: Tmax) | concentration at 24 h ([2]; male, read-out: Plasma concentration 24 h after ingestion)
1 | COc1ccc([C@H]2Oc3cc(OS(=O)(=O)O)cc(O)c3C[C@H]2O)cc1O [4′-O-Methyl-(−)-epicatechin-7-sulfate] | 0.4 ± 0.2 μ mol | 0.3 ± 0.1 μ mol | 0.1 ± 0.1 μ mol | 166 ± 54 nM·h | 33 ± 5 nM | 2.6 ± 0.5 h | 1.4 ± 0.2 h |  |  |  |  |  |  |  | 
2 | O=C(O)CCC(O)Cc1ccc(O[C@@H]2O[C@H](C(=O)O)[C@@H](O)[C@H](O)[C@H]2O)c(O)c1 (some centres unmarked) [5-(3′-Hydroxyphenyl)-γ-hydroxyvaleric acid-4′-O-glucuronide] | 2.3 ± 0.7 μ mol |  | 1.3 ± 0.5 μ mol | 835 ± 355 nM·h | 54 ± 14 nM | 6.5 ± 0.8 h | 4.9 ± 1.3 h | 0.5 ± 0.3 μ mol | 0.5 ± 0.1 μ mol |  |  |  |  |  | 
3 | O=C1CCC(Cc2ccc(O)c(OS(=O)(=O)O)c2)O1 (centres unmarked) [5-(4′-hydroxyphenyl)-γ-valerolactone-3′-sulfate] | 38.0 ± 4.7 μ mol | 3.6 ± 1.1 μ mol | 16.0 ± 3.0 μ mol |  |  |  |  | 9.8 ± 2.0 μ mol | 8.1 ± 2.9 μ mol | 0.5 ± 0.5 μ mol | 272 ± 56 nM | 7.59 ± 2.68 µM·h | 378 ± 102 min | 6.4 ± 1 h | ~50 nM
4 | O=C(O)[C@H]1O[C@@H](Oc2cc([C@H]3Oc4cc(O)cc(O)c4C[C@H]3O)ccc2O)[C@H](O)[C@@H](O)[C@@H]1O [(−)-Epicatechin-3′-O-glucuronide, (−)-epicatechin-3′-O-β-D-glucuronide] | 18.6 ± 2.5 μ mol | 8.0 ± 1.4 μ mol | 5.7 ± 1.3 μ mol |  |  |  |  | 2.9 ± 0.8 μ mol | 2.0 ± 0.8 μ mol |  | 359 ± 23 nM | 1.62 ± 0.332 µM·h | 120 ± 66 min | 0.8 ± 0.1 h | 
5 | O=S(=O)(O)Oc1cc([C@H]2Oc3cc(O)cc(O)c3C[C@H]2O)ccc1O [(−)-Epicatechin-3′-sulfate, (−)-epicatechin-3′-sulfate] | 7.7 ± 0.9 μ mol | 6.0 ± 0.7 μ mol | 1.2 ± 0.4 μ mol |  |  |  |  | 0.3 ± 0.1 μ mol | 0.2 ± 0.2 μ mol |  | 191 ± 17 nM | 0.633 ± 0.135 µM·h | 120 ± 18 min | 1.1 ± 0.1 h | 
6 | O=S(=O)(O)Oc1cc(O)cc2c1C[C@@H](O)[C@@H](c1ccc(O)c(O)c1)O2 [(−)-Epicatechin-5-sulfate] | 1.3 ± 0.2 μ mol | 1.3 ± 0.2 μ mol |  | 92 ± 25 nM·h | 32 ± 4 nM | 1.9 ± 0.3 h | 0.8 ± 0.1 h |  |  |  |  |  |  |  | 
